Test results: patent US10682409B2, “Therapeutic treatment” (priority 2012, dated 2020)

Columns and labels:
[1] = Example 2 case study: child with ADHD on methylphenidate, then Periactin (height, weight, percentiles, attentiveness); type: in vivo, human
Text: Case study: A child was presented by their parents for symptoms of attention deficit hyperactivity disorder. Their size at evaluation was 4′1¾″ and 50 lbs, corresponding to the 81st and 50th percentiles when compared to girls their age. […] At three months following the initiation of treatment for ADHD, the child was 4′2⅞″ and 50½ lbs, corresponding to the 85th and 34rd percentiles when compared to girls their age. At one year, they were 4′4⅜″ and 53 lbs, corresponding to the 84th and 36th percentiles when compared to girls their age. At two years they were 4′5¾″ and 54 lbs, corresponding to the 72nd and 17th percentiles when compared to girls their age. At four years of treatment they were 4′7⅜″ and 59 lbs, corresponding to 70th and 14th percentiles when compared to girls their age. At five years of treatment they were 4′9⅞″ and 64½ lbs, corresponding to 59th and 7th percentiles when compared to girls their age.
The child was then prescribed Periactin at a dosage of 2 mg b.i.d. to attempt to stimulate appetite. The dose was taken in the morning and then in the afternoon. After one year they were 4′11½″ and 72½ lbs, corresponding to 33rd and 5th percentiles when compared to girls their age. The child was then prescribed Periactin at a dose of 4 mg b.i.d. After two months on this dose, they were 5′¼″ and 76 lbs, corresponding to 37th and 8th percentiles when compared to girls their age. At 8 months on this dose, they were 5′½″ and 80 lbs, corresponding to 41st and 8th percentiles when compared to girls their age. At one year on this dose, they were 5′2¾″ and 89½ lbs, corresponding to 51st and 17th percentiles when compared to girls their age. At 18 months on this dose, they were 5′3⅝″ and 99½ lbs, corresponding to 56th and 30th percentiles when compared to girls their age. Additionally, the attentiveness of the child increase following the prescription of Periactin as they increased their food intake during the day.

[2] = cited from earlier work
[3] = cited from earlier work; remark: listed apart in the source
[4] = system: patients suffering from ADHD; assay: Clinical Global Impression-Severity scale (CGI-S), Patients A-H; type: in vivo, human
Description: In an embodiment, attentiveness is measured using the Clinical Global Impression rating scales to measure symptom severity, treatment response and the efficacy of treatments in treatment studies of patients with mental disorders (Guy, W., 1976). In an embodiment, attentiveness is measure using the Clinical Global Impression-Severity scale (“CGI-S”). In an embodiment, CGI-S is a 7-point scale that requires the clinician to rate the severity of the patient's illness at the time of assessment, relative to the clinician's past experience with patients who have the same diagnosis. Considering total clinical experience, a patient is assessed on severity of mental illness at the time of rating 1, normal, not at all ill; 2, borderline mentally ill; 3, mildly ill; 4, moderately ill; 5, markedly ill; 6, severely ill; or 7, extremely ill. In an embodiment, attentiveness is measured using the Clinical Global Impression-Improvement scale (“CGI-I”). […] In an embodiment, attentiveness is measured using the Clinical Global Impression-Efficacy Index (“CGI-E”).
The age range of the patients was from 6-15 years of age, with a mean age at the start of treatment for ADHD of 8.4 years of age. The mean age at the start of the combination treatment wherein the patient was administered an amphetamine or methylphenidate and an appetite stimulant was 10.3 years of age. The mean treatment period for the eight patients was 1,108 days with a mean of 2.55 ADHD medication changes during the treatment period. Attentiveness in the eight patients was measured using CGI-S and CGI-I. Patients weight and height velocity were measured to identify a difference in weight and height gain prior to and after addition of an appetite stimulant to the treatment for ADHD. Weight velocity was calculated by taking three time points, time 0 upon initiation of medication to treat ADHD, time 1 addition of an appetite stimulant, time 2 the last data point after initiation of combination treatment. The formula to calculate weight velocity for stimulant alone is (weightT1−weight T0)/days from Time 0 to time 1. The formula to calculate weight velocity for combination treatment is (weightT2−weight T1)/days from time 1 to time 2.

[5] = system: patient suffering from ADHD; assay: Example 1: patient suffering from ADHD treated with and without an appetite stimulant (appetite, blood glucose, attentiveness by CGI-S and CGI-I); type: in vivo, human
Text: A patient suffering from ADHD is prescribed and administered an amphetamine to treat ADHD. The patient takes the amphetamine once a day in the morning or afternoon. […] As a result, the glucose level measured in the blood increases as shown in FIG. 1 and the patient's attentiveness recovers as measured by CGI-S and CGI-I. By taking the appetite stimulant during the time when the patient was awake, the patient increased their caloric intake during times when the patient needed to maintain their attentiveness in order to have reasonable cognition and/or social behaviour.

[6] = Periactin 2 mg b.i.d., after one year
[7] = Periactin 4 mg b.i.d., 8 months
[8] = Periactin 4 mg b.i.d., 18 months
[9] = Periactin 4 mg b.i.d., one year
[10] = Periactin 4 mg b.i.d., two months

For CN1CCC(=C2c3ccccc3C=Cc3ccccc32)CC1.Cl [Periactin, 4-(5H-dibenzo[a,d]cyclohepten-5-ylidene)-1-methylpiperidine hydrochloride], the “height percentile compared to girls their age” value (“height percentile” for short) [1, 6] was 33 percentile, the “weight percentile compared to girls their age” value (“weight percentile” below) [1, 6] was 5 percentile and the “height percentile” value [1, 7] was 41 percentile. For the same molecule, the weight [1, 7] was 80 lbs, the “weight percentile” value [1, 7] was 8 percentile and the “height percentile” value [1, 8] was 56 percentile. For the same molecule, the “weight percentile” value [1, 8] was 30 percentile, the “height percentile” value [1, 9] was 51 percentile and the “weight percentile” value [1, 9] was 17 percentile. The “height percentile” value [1, 10] was 37 percentile, the weight [1, 10] was 76 lbs and the “weight percentile” value [1, 10] was 8 percentile. The attentiveness ([1]; following the prescription of Periactin) was “increase”, the “time to reach peak plasma levels” value ([2]; after administration) was 1 to 3 h and the half-life ([2]; in vivo) was 8 h. For the same molecule, the “effect in children suffering from ADHD (anecdotal evidence)” value ([3]; ADHD drug (amphetamine or methylphenidate) plus 4-8 mg cyproheptadine at night (Daviss 2004)) was “weight gain and excessive sleep”, the “effect on weight in studies” value ([3]; non-human animals or humans (Orthen-Gambill 1988)) was “weight gain” and the side effects ([3]; oral monotherapy for allergy) was “weight gain and drowsiness”. It also gave a CGI-S score ([4]; Patient A, Periactin 4 mg b.i.d. added to Concerta, FIG. 5) of 3, a CGI-S score ([4]; Patient B, Focalin XR 15 mg and Periactin 4 mg b.i.d. (remained), FIG. 7) of 3 and a CGI-S score ([4]; Patient B, Focalin XR raised to 30 mg at day 1279 with Periactin, FIG. 7) of 2. For the same molecule, the CGI-S score ([4]; Patient C, Concerta 36 mg and Periactin 4 mg b.i.d., FIG. 9) was 4, the CGI-S score ([4]; Patient D, Concerta 18 mg and Periactin 2 mg in the morning, FIG. 11) was 5 and the CGI-S score ([4]; Patient D, Concerta increased to 27 mg with Periactin, FIG. 11) was 4. For the same molecule, the CGI-S score ([4]; Patient E, Focalin XR 20 mg and Periactin 4 mg in the morning) was 4, the CGI-S score ([4]; Patient E, Periactin dosed b.i.d. with Focalin XR) was 3 and the CGI-S score ([4]; Patient G, Focalin XR 15 mg and Periactin 4 mg b.i.d., FIG. 17) was 3. The “CGI-S score versus prior examination” value ([4]; Patient H, Vvyanase 40 mg and Periactin 2 mg b.i.d., day 200, FIG. 19) was “had not changed”, the “lowering of the CGI-S of a patient by addition of the appetite stimulant” value ([4]; Patients A-H, versus same patient prior to appetite stimulant, FIG. 20, 21) was at least 1 and the “attentiveness as measured by CGI-S and CGI-I” value ([5]; amphetamine and Cyproheptadine once a day) was “recovers”. For the same molecule, the appetite ([5]; amphetamine and Cyproheptadine once a day in the morning or afternoon) was “resumes” and the “glucose level measured in the blood” value ([5]; amphetamine and Cyproheptadine once a day, FIG. 1) was “increases”.
